Key:
TLR7 = biological target: T1, TLR7 (Homo sapiens, UniProt Q9NYK1); assay: In vitro human TLR7 binding reporter assay (HEK-Blue, NF-kB/AP1-inducible SEAP); format: cell-based; details: activity range, read-out: TLR7 Agonist EC50
T1 construct: human HEK-Blue cells co-expressing a TLR7 or TLR8 gene
T1 sequence (Q9NYK1 27-1049): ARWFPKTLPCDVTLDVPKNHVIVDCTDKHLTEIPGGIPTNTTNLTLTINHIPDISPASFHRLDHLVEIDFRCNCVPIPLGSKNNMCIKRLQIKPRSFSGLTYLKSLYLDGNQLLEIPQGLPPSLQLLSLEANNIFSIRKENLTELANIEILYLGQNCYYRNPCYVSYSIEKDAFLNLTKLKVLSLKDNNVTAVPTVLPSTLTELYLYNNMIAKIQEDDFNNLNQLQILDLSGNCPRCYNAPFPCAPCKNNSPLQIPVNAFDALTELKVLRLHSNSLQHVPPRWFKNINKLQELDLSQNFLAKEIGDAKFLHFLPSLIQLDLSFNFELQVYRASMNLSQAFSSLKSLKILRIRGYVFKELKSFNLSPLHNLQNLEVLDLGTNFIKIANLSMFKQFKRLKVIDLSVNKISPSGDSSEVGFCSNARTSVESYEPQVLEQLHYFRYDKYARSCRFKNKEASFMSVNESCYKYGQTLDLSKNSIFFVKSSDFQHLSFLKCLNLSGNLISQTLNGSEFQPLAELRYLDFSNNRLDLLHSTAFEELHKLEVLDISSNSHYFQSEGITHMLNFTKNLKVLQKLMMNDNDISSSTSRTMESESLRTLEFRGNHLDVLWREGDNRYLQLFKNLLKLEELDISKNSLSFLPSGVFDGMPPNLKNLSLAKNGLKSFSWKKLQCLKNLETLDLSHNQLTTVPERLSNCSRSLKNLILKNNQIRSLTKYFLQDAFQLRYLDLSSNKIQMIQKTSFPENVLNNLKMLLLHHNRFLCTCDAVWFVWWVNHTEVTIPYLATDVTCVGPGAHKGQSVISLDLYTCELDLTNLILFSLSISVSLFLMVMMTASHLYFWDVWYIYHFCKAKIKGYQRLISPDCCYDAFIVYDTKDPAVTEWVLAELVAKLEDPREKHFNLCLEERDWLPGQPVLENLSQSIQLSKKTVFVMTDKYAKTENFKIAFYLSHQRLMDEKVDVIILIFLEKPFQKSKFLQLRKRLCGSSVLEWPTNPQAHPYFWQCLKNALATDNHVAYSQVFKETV
Procedure, shortened: (§1)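 Cells are seeded and grown for 24 h. Compounds or DMSO are then added and incubated 18 h at 37 °C. Quanti-Blue is added, and SEAP is read after thirty minutes. EC50 values are normalized, with RLU from 50 μM reference standard setting 100% Ymax.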

THP-1 cells = assay: Measurement of IL-1β production, hTRF protocol (second alternative procedure), THP-1 cells; format: cell-based, human; details: Homo sapiens, THP-1, IL-1β production, human cells; read-out: NLRP3 hILIB EC50
Procedure, shortened: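 Compounds, dilution series starting at a final 10 μM, were incubated 2 hours at 37° C with PMA-differentiated THP-1 cells (50 ng/ml overnight; 50,000 cells/well, 2% FBS RPMI). Released IL-1β quantified in supernatant by hTRF kit with 1:40 antibody dilution, 4° C overnight, 665/615 nm ratio.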

TLR8 = biological target: T2, TLR8 (Homo sapiens, UniProt Q9NR97); assay: In vitro human TLR8 binding reporter assay (HEK-Blue, NF-kB/AP1-inducible SEAP); format: cell-based; details: activity range, read-out: TLR8 Agonist EC50
T2 construct: human HEK-Blue cells co-expressing a TLR7 or TLR8 gene
T2 sequence (Q9NR97 27-1041): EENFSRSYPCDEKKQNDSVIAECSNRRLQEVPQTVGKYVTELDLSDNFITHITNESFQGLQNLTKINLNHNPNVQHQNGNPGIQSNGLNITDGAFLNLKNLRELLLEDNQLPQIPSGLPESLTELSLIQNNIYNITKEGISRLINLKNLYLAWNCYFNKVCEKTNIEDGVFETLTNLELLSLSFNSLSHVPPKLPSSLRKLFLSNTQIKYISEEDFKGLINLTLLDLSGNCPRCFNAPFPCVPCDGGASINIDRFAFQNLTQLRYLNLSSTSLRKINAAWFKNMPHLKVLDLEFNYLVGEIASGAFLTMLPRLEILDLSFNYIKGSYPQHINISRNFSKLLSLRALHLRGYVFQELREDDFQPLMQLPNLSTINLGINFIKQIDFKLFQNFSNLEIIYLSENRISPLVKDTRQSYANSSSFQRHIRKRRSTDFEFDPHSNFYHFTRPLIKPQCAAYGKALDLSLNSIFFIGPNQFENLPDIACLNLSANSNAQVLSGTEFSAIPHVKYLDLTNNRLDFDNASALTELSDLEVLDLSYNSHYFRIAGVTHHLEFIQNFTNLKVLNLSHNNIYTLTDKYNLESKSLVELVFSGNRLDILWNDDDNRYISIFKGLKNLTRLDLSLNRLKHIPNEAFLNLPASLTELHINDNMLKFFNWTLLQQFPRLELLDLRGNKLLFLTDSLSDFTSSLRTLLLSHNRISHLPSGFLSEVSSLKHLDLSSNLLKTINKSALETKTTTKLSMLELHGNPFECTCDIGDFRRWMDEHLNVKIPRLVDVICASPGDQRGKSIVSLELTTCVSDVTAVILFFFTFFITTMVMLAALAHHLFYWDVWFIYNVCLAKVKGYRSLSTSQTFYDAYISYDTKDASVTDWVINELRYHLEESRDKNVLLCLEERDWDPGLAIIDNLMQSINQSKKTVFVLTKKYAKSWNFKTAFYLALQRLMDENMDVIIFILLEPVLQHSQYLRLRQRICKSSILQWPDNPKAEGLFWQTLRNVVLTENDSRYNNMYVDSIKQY
Procedure, shortened: as §1

| SMILES | EC50 (TLR7) | EC50 (THP-1 cells) | EC50 (TLR8) |
| --- | --- | --- | --- |
| CC(C)NC(=O)CC(C)n1cc2c(N)nc3cc(-c4cc[nH]n4)ccc3c2n1 (stereo not drawn) [Example 615] | > 100 µM | 10.4 µM | > 100 µM |
| CC(CC(=O)N1CCOCC1)n1cc2c(N)nc3cc(-c4cc[nH]n4)ccc3c2n1 (stereo not drawn) [Example 616] | > 100 µM | 9.56 µM | > 100 µM |
| CC(CC(=O)N(C)C)n1cc2c(N)nc3cc(-c4cc[nH]n4)ccc3c2n1 (stereo not drawn) [Example 617] | > 100 µM | 3.88 µM | > 100 µM |
| CC(CC(=O)NCC(F)F)n1cc2c(N)nc3cc(-c4cc[nH]n4)ccc3c2n1 (stereo not drawn) [Example 618] | > 100 µM | 14.5 µM | > 100 µM |
| CC(CC(=O)NCCCO)n1cc2c(N)nc3cc(-c4cc[nH]n4)ccc3c2n1 (stereo not drawn) [Example 619] | > 100 µM | 19.7 µM | > 100 µM |
| CC(CC(=O)NCCO)n1cc2c(N)nc3cc(-c4cc[nH]n4)ccc3c2n1 (stereo not drawn) [Example 620] | > 100 µM | 28.6 µM | > 100 µM |
| CNC(=O)CC(C)n1cc2c(N)nc3cc(-c4cc[nH]n4)ccc3c2n1 (stereo not drawn) [Example 621] | > 100 µM | 1.86 µM | > 100 µM |
| CC(CC(=O)NC1CCC1)n1cc2c(N)nc3cc(-c4cc[nH]n4)ccc3c2n1 (stereo not drawn) [Example 622] | > 100 µM | 7.28 µM | > 100 µM |
| COC1CCN(C(=O)CC(C)n2cc3c(N)nc4cc(-c5cc[nH]n5)ccc4c3n2)CC1 (stereo not drawn) [Example 623] | > 100 µM | 17.3 µM | > 100 µM |
| CC(CC(=O)NCC1CCOCC1)n1cc2c(N)nc3cc(-c4cc[nH]n4)ccc3c2n1 (stereo not drawn) [Example 624] | > 100 µM | 19.9 µM | > 100 µM |

Reference: patent US12037344B2, “NLRP3 modulators” (INNATE TUMOR IMMUNITY, INC., priority 2018, dated 2024)
